Experimental data taken from paper PMC11528023, “Transport mechanism and structural pharmacology of human urate transporter URAT1” (Cell Research, 2024).

Assays:
URAT1WT = biological target: T1, URAT1WT (Homo sapiens, UniProt Q96S37); experiment: 14C-urate uptake inhibition in HEK293 cells expressing WT URAT1; format: cell-based
T1 construct: expressed in transfected cells; host or cells: HEK293 cells (ATCC, CRL-3216), transient transfection with Lipofectamine 3000
T1 sequence (Q96S37 1-553): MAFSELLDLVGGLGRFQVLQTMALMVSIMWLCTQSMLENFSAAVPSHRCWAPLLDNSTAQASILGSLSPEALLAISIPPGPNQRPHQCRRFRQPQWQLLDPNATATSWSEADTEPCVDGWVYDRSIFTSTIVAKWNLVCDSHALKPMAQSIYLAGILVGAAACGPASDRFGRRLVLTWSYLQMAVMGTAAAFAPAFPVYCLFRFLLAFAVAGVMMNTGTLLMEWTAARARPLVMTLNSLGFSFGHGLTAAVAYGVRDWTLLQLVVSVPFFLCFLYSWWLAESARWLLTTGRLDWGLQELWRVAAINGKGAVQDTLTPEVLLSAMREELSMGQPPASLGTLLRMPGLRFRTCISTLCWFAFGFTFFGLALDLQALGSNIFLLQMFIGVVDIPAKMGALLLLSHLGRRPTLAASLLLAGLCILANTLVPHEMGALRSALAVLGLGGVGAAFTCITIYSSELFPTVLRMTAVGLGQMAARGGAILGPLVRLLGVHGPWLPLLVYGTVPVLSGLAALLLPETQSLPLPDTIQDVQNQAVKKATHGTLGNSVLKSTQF
Method: (§1) Data are shown as mean ± SD; n = 3 biological replicates. In a, b, uptake buffer: 20 mM HEPES pH 7.4, 125 mM sodium gluconate, 4.8 mM potassium gluconate, 1.2 mM monobasic potassium phosphate, 1.2 mM magnesium sulfate, 1.3 mM calcium gluconate, and 5.6 mM glucose. c Cryo-EM density maps of URAT1 in the apo and substrate-bound states. […] Putative lipid densities are in light cyan. d Cryo-EM density maps of URAT1 in the drug-bound states. […] Putative lipid densities are in light cyan. e Diagram of URAT1 topology. ECD, extracellular domain. f Structure of URAT1 in the apo state. g Slice view of URAT1 in the apo state, showing the central cavity and opening to the intracellular side.
(§2) Human embryonic kidney (HEK) 293 cells (ATCC, CRL-3216) were seeded onto poly(D-lysine)-coated 96-well plates at a density of 0.3 × 10^5 cells per well and cultured at 37 °C until reaching approximately 70%–80% confluence. The cells were transiently transfected with plasmids encoding the URAT1 WT or mutants using Lipofectamine 3000 (Invitrogen, L3000001), following the manufacturer’s protocol. The transfected cells were cultured at 37 °C for 12 h. Following this, 10 mM sodium butyrate was added, and the cells were further incubated at 30 °C for an additional 24 h. […]

URAT1EM = biological target: T2, URAT1EM (Homo sapiens, UniProt Q96S37, A280P/A304R/A323S/A335R/D313K/DEL311-312/DEL60-62/G295A/G309E/G331A/G338L/G65T/I63V/INS307H/L287I/L292P/L321M/L328V/L337V/L341F/L64S/M324V/M330S/M343V/P317I/P333E/Q332K/R291K/R301K/R325K/R342C/S329A/T288I/T289K/T314N/T339D/W294Q/W300R); experiment: 14C-urate uptake in HEK293 cells expressing URAT1EM (cryo-EM construct); format: cell-based
T2 construct: human URAT1 (residues 3–553), a (GGGGS)3 linker, and C-terminal DARPinoff7; expressed in transfected cells; host or cells: HEK293 cells (ATCC, CRL-3216), transient transfection
T2 sequence (Q96S37 with tags, fused parts or gaps DEL60-62/I63V/L64S/G65T/A280P/L287I/T288I/T289K/R291K/L292P/W294Q/G295A/W300R/R301K/A304R/INS307H/G309E/DEL311-312/D313K/T314N/P317I/L321M/A323S/M324V/R325K/L328V/S329A/M330S/G331A/Q332K/P333E/A335R/L337V/G338L/T339D/L341F/R342C/M343V): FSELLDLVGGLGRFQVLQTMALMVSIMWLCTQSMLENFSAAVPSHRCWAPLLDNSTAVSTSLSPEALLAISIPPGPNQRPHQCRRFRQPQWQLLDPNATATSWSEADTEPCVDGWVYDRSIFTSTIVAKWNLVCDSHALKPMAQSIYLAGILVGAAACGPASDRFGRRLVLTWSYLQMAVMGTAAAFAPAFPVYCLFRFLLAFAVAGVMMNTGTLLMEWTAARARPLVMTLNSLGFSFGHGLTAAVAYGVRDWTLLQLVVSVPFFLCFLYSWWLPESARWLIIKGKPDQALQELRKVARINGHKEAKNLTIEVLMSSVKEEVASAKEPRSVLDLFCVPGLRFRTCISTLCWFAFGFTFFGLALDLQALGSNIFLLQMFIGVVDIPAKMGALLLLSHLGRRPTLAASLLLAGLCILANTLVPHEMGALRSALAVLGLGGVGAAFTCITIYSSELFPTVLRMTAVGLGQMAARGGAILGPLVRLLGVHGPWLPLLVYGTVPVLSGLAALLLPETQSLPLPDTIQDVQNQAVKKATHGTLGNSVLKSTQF
Method: as §1, §2

SMILES: O=C(c1cc(Cl)c(O)c(Cl)c1)N1CS(=O)(=O)c2ccccc21 [dotinurad]
- IC50 (URAT1WT): 170 nM
- IC50 (URAT1EM): 190 nM
